# Results: US11466020B2, “Compounds and compositions for inhibition and elimination of Zika infection and uses for same” (Cornell University, priority 2017, dated 2022)
# Where a name gives a salt, the structure may show the parent alone.
# Tests used:
# ZIKV (MR766 strain) = test: Therapeutic treatment of ZIKV (MR766 strain) infected SCID-beige mice; format: in vivo; details: HH 100 mg/kg/day subcutaneously for 5 days from day 5 post-infection
# Description: (A) Scheme of prophylactic treatment of HH in vivo. HH was administrated to SCID-Beige mice 12 h before infection with MR766 virus strain. HH was injected at a dose of 100 mg/kg/day subcutaneously and euthanized at day 7. (B) qRT-PCR analysis of total ZIKV vRNA in liver, spleen, kidney and brain of ZIKV infected mice. n=12 for liver, spleen and kidney and 20 for brain. (C) qRT-PCR analysis of total ZIKV vRNA in brains of ZIKV-infected mice treated with vehicle (n=14) or HH (n=8). […] (D-F) Immunohistochemical analysis of adult cortex. […] HH prevents infection in all cortical cells. Scale bar=100 μm in (D) and 10 μm in (E, F). (G-I) Immunohistochemical analysis of adult hippocampus. […] HH inhibits infection of all cells in the hippocampus. […] The mice were then euthanized and RNA from brains was analyzed using qRT-PCR. […] The mice were euthanized after 7 days treatment and RNA from brains was analyzed using qRT-PCR. (W, X) qRT-PCR analysis of total vRNA (W) and (−) strand RNA (X) in the brains of mice treated with vehicle (n=8) or HH (n=11) at day 7 post-infection. p values were calculated by one-way repeated measures ANOVA or two-way repeated measures ANOVA with a Bonferroni test for multiple comparisons. *p<0.05, **p<0.01 and ***p<0.001.
# To evaluate the therapeutic potential of HH, we first monitored the kinetics of ZIKV infection (MR766 strain) in the adult mouse brain. […]
# ZIKV (FSS13025 strain) = test: qRT-PCR of vRNA in human forebrain organoids treated 42 h or 48 h post-infection (FSS13025); format: cell-based, Zika virus; details: HH added at 42 h or 48 h post-infection, additional 3 days
# Description: Immunocytochemical analysis of D20+4 ZIKV-infected organoids treated with 15 μM AQ or DMSO or with mock infection (n=3). D20+4 organoids were stained for SOX2, ZIKV E and with DAPI to monitor the ZIKV infection rate. D20+4 organoids were also stained for Ki67, CAS3 and with DAPI to monitor the cell proliferation and apoptosis rate. […] Scale bars, 100 μm. (B) The expression dynamics of ZIKV vRNA (FSS13025 strain) in human forebrain organoids. qRT-PCR analysis to quantify the total and replicating (−) strand vRNA levels in the human forebrain organoids at different time points post-infection. […] (C) qRT-PCR analysis of human forebrain organoids that were treated with 25 μM HH or DMSO at 42 h or 48 h post-ZIKV (FSS13025 strain) infection and maintained for additional 3 days. p values were calculated by unpaired two-tailed Student's t-test. *p<0.05, **p<0.01 and ***p<0.001, if not mentioned specifically.
# To further validate the effect of HH on ZIKV-infected brain organoids, we first monitored ZIKV vRNA expression dynamics in organoids using qRT-PCR analysis.
# RNA Extraction and qRT-PCR. Total RNA of cultured cells and organs was extracted with RNeasy plus mini kit (Qiagen). vRNA from cell culture supernatant or mouse serum was extracted with QIAampe viral RNA mini kit (Qiagen). […] ZIKV vRNA levels were calculated using a standard curve generated using serial 10-fold dilutions of ZIKV vRNA.
smiles,measurement,setting,value
"CN1CCC2=C[C@H](O)[C@H]3OC(=O)c4cc5c(cc4[C@H]3[C@@H]21)OCO5 [HH, hippeastrine hydrobromide]",total and replicating (-) vRNA levels in brain,ZIKV (MR766 strain),significantly decreased
same,total and replicating (-) ZIKV vRNA levels in forebrain organoids,ZIKV (FSS13025 strain),significantly decreased
